Measured values published in patent US10369133B2, “Immunosuppressive compounds and therapeutics” (UNIVERSITY OF TENNESSEE RESEARCH FOUNDATION, priority 2013, dated 2019).

Key:
human PBMCs in NSG mice = experiment: Immunosuppressive effect in humanized NSG mice; format: in vivo, mouse; conditions: for amount of human CD3+ T cells in the mouse spleen / serum human IgG level: 50 mg/kg intraperitoneally, consecutive 7 shots, compared with saline
Protocol: Human PBMCs (5×10^6/mouse) were injected intraperitoneally into NSG mice to introduce human immunity. Sections were stained to indicate human CD3+ T cells (red) and counterstained with DAPI (blue). […] Results are presented as the mean±S.D., n=5.
Human PBMCs were isolated from buffy coats by gradient centrifugation using Ficoll Paque. The T cells and B cells of PBMCs were stained with FITC conjugated CD3 antibody and APC conjugated CD19 antibody, respectively, and characterized using flow cytometry. The PBMCs were infused into diabetic NSG mice at the concentration of 5×10^6/mouse to establish human immunity. The settlement of T cells in the spleen was assessed by immunofluorescence staining. Briefly, spleen were isolated, washed with PBS, fixed in 4% paraformaldehyde overnight, and embedded in optimal cutting temperature compound. Frozen sections of 5 μm thickness were cut. The slides were stained with rabbit anti-human CD3 primary antibody (1:200) at 4° C. overnight and Alexa Fluor 568 conjugated goat anti-rabbit secondary antibody (1:500) at room temperature for 1 h. The function of B cells was assessed by measuring human IgG concentration in the mouse blood.
To test the immunosuppressive effect of JP-3-110 in vivo, a humanized mouse model was used. Briefly, human PBMCs (5×10^6/mouse) were adoptively transferred into immunodeficient NSG mice to build human immunity. The human IgG level in the serum and human CD3+ T cell staining in the spleen was used to confirm the existence of human immunity (FIG. 8B). JP-3-110 and MPA was administrated intraperitoneally at 50 mg/kg for consecutive 7 shots.

INS-1E cells [1] = experiment: Caspase 3 activity in INS-1E cells (Caspase-Glo 3); format: cell-based; conditions: 20 μM (each), 2 days
Protocol: (§1) Results are presented as the mean±S.D., n=3. […] Apoptotic cells were stained in dark (arrows). […] Islet was collected and dispersed with 0.25% Trypsin/EDTA into single cell suspension. P3 indicated the percentage of apoptotic cells. All experiments were performed in triplicates. Results are presented as the mean±SD. *p<0.05 as determined by an unpaired Student's t-test, n=6.
A cytokine cocktail (5 ng/ml TNFα and 5 ng/ml IL-1β) was used to mimic the in vivo challenge to the INS-1E cells and human islets by the inflammatory cytokines. Caspase-Glo 3 assay kits were used to analyze caspase 3 as per the manufacturer's protocol (Promega, Madison, Wis.). This assay kit provides a proilluminescent caspase substrate, DEVD, that, when cleaved by caspases, will release luciferin to quantitatively determine caspase concentration. […] The contents were then transferred into culture tubes, and luminescence was determined using a luminometer (Berthold, Germany).
We then determined the conjugation with TNP can reduce the pro-apoptotic effect of MPA. […] We first measured the caspase 3 activities of insulin-producing INS-1E cells under the stimulation of MPA alone, or MPA with free TNP, or JP-3-110 (MPA conjugated with TNP). […]

NF-κB = NF-κB SEAP reporter gene assay in INS-1E cells; format: cell-based, rat; conditions: for NF-κB activities in INS-1E cells: printed "at 504" (FIG. 2B: 5 μM), cytokine cocktail 10 ng/mL TNFα, 5 ng/mL IL-1β, 10 ng/mL IFN-γ, 24 hours
Protocol: Briefly, a plasmid construct containing NF-kB promoter and SEAP gene was transferred into INS-1E cells by lipofectamine. SEAP was then expressed and secreted into culture supernatant and allowed […] detection using a substrate PNPP under 405 nm. […] NF-kB activity was measured 24 hours after addition of cytokine cocktail (10 ng/mL TNFα, 5 ng/mL IL-1β and 10 ng/mL IFN-γ) alone or with JP-3-110 (5 μM) or TNP (5 μM) or MPA (5 μM). Blank, no cytokine stimulation. Cyt, cytokine cocktail. Results are presented as the mean±S.D., n=3.
INS-1E cells which were stably transfected with the SEAP gene containing the response-element for NF-κB were used to screen for anti-inflammatory activity. Briefly, 10^6 cells/well were seeded overnight followed by treatment with 10 ng/mL human recombinant TNFα and either TNP or hybrid drug JP-3-110 (1 μM). SEAP activity was measured 18 h later in supernatant samples (50 µL) using the NF-κB SEAPorter™ Assay Kit (IMGENEX, San Diego, Calif.) and a microplate luminometer. SEAP activity was normalized to the total protein content.

INS-1E cells [2] = experiment: TUNEL assay of INS-1E cells; format: cell-based; conditions: 20 μM
Protocol: as §1
The apoptosis of INS-1E cells was analyzed using terminal deoxynucleotidyl transferase dUTP nick end labeling (TUNEL). Briefly, following JP-3-110 treatment for 48 h and cytokine cocktail treatment for additional 48 h, INS-1E cells were characterized by the DeadEnd™ Colorimetric TUNEL system (Promega, Madison, Wis., USA), in which fragmented DNA from apoptotic cells was labeled with biotinylated nucleotide and detected using hydrogen peroxide and diaminobenzidine. For human islets, following treatment with JP-3-110 and cytokines, human islets were digested with 0.25% trypsin/EDTA into a single-cell suspension, stained with the Annexin V-FITC Apoptosis Detection Kit (Abcam, Cambridge, Mass.) and analyzed with flow cytometry. Annexin V binds to phosphatidylserine on the cell surface, which is a feature found in apoptotic cells. Fluorescent intensity was analyzed using CellQuest software (BD Bioscience, Franklin Lakes, N.J.). […]
We then determined the conjugation with TNP can reduce the pro-apoptotic effect of MPA. […]

human CD3+ T cells = experiment: Mixed lymphocyte reaction: proliferation of PHA-stimulated T cells; format: cell-based; conditions: PHA 1 μg/mL; 5 μM; in 4 days
Protocol: Briefly, human peripheral blood mononuclear cells PBMCs were isolated from human buffy coat using Ficoll-Paque. […] Results are presented as the mean±S.D., n=6.
PBMCs were isolated using Ficoll Paque. T cells were isolated from PBMCs using Dynabeads for. T cells were stimulated with PHA (1 μg/ml) for 24 h alone or in the presence of TNP (5 μM) or JP-3-110 (5 μM) for additional 4 days. The total number of PBMCs was measured using T4 Automatic Cell Counter (Nexcelom, Lawrence, Mass.). The extent of T cell activation was determined by measuring the level of IL-2, IL-2sRa, TNFα and IFN-γ in the medium using ELISA at indicated time.
Mixed lymphocytes reaction was used to determine the immunosuppressive effects of MPA and JP-3-110. T cells were purified using dynabeads from peripheral blood mononuclear cells (PBMCs), which were initially isolated from human buffy coat (FIG. 8A). […] The levels of IL-2, IL-2sRa, TNFα and IFNγ were detected by ELISA to study the effects of JP-3-110 and MPA on T cell activation.

CCCCNC(=O)[C@]1(O)C[C@@H](O)[C@@H](O)[C@H](OC(=O)CC/C(C)=C/Cc2c(OC)c(C)c3c(c2OC(C)=O)C(=O)OC3)C1 [JP-3-110, (1R,2R,3R,5S)-5-(butylcarbamoyl)-2,3,5-trihydroxycyclohexyl (E)-6-(4-acetoxy-6-methoxy-7-methyl-3-oxo-1,3-dihydroisobenzofuran-5-yl)-4-methylhex-4-enoate]
amount of human CD3+ T cells in the mouse spleen (human PBMCs in NSG mice): significantly reduced
serum human IgG level (human PBMCs in NSG mice): significantly reduced
caspase 3 activity (INS-1E cells [1]): effectively reversed the elevation of caspase 3 activity
reduction in NF-κB activities compared among the three groups (NF-κB; MPA, TNP and JP-3-110 compared, cytokine cocktail): most reduction
NF-κB activities in INS-1E cells (NF-κB): significantly reduced
apoptotic cell death (TUNEL) (INS-1E cells [2]): effectively reversed
proliferation of T cells (human CD3+ T cells): equally potent as MPA

COc1c(C)c2c(c(O)c1C/C=C(\C)CCC(=O)O)C(=O)OC2 [MPA, mycophenolic acid, reference compound]
amount of human CD3+ T cells in the mouse spleen (human PBMCs in NSG mice): significantly reduced
serum human IgG level (human PBMCs in NSG mice): significantly reduced
immunosuppressive effect, MPA compared with JP-3-110 (human PBMCs in NSG mice; humanized NSG mice, 50 mg/kg each): slightly better immunosuppressive effect than JP-3-110
caspase 3 activity (INS-1E cells [1]): elevation of caspase 3 activity
NF-κB activities in INS-1E cells (NF-κB): significantly reduced
apoptotic cell death (TUNEL) (INS-1E cells [2]): apoptotic cell death
proliferation of T cells (human CD3+ T cells): suppress the proliferation of T cells
